This note sets out measurements from publication PMC6469291, “2-Nitroimidazole-Furanoside Derivatives for Hypoxia Imaging—Investigation of Nucleoside Transporter Interaction, ^18F-Labeling and Preclinical PET Imaging” (Pharmaceuticals, 2019).

The test system of one data set is CT26 colon carcinoma. Kind of data set: PET hypoxia imaging of CT26 colon carcinoma bearing mice. The note with it: for tumor uptake: hypoxic CT26 tumor tissue; for tumor uptake / muscle uptake: PET; for tumor-to-muscle ratio (TMR): i.v., CT26 tumor vs. shoulder muscle, mean ± SD; for muscle uptake: normoxic muscle tissue. In kind it is in vivo, BALB/c mice. On the procedure: The above-described CT26 mouse colon carcinoma cells were subcutaneously inoculated in the right shoulder of female BALB/c mice (1 × 10^6 cells in phosphate-buffered saline, PBS). Subsequently, the carcinomas were allowed to grow for a period of 13 days, reaching approximately 0.3 cm3. […] All animal experiments were conducted according to guidelines for the use and care of laboratory research animals under the German Animal Protection Law, and approved by local authorities (Regierungspräsidium Tübingen). […] All experiments were done using medical air as carrier gas for isoflurane anesthesia (1.5% isoflurane during PET scans, flow rate 0.4 L/min), including tracer injections, with a specialized vaporizer ([…], Louisville, KY, USA). Subsequent to the tracer injections, the animals were allowed to freely move in their home cages for an uptake period of 55 min, thus, breathing room air. […] PET scans were performed with a Siemens Inveon dedicated PET (DPET, Siemens Healthcare, Knoxville, TN, USA). PET scans were then reconstructed with a two-dimensional ordered subset expectation maximization algorithm (OSEM2D with 16 subsets and 4 iterations). Image zoom was set to 1 and matrix size to 128 × 128 yielding a final PET image spatial resolution of 0.79 × 0.79 × 0.80 mm3. PET data were manually corrected for radioactive decay of ^18F. PET image analysis was performed using the PMOD 3.2_base 64 image viewing tool (PMOD Technologies, Zürich, Switzerland). […] Finally, PET data were expressed as percent injected dose per cubic-centimeter (%ID/cc) or tumor-to-muscle ratio (TMR).

Another data set deals with T1, hENT1 (SLC29A1) (Homo sapiens, UniProt Q99808).
T1 construct: expressed in transfected cells; host or cells: Saccharomyces cerevisiae
T1 sequence (Q99808 1-456): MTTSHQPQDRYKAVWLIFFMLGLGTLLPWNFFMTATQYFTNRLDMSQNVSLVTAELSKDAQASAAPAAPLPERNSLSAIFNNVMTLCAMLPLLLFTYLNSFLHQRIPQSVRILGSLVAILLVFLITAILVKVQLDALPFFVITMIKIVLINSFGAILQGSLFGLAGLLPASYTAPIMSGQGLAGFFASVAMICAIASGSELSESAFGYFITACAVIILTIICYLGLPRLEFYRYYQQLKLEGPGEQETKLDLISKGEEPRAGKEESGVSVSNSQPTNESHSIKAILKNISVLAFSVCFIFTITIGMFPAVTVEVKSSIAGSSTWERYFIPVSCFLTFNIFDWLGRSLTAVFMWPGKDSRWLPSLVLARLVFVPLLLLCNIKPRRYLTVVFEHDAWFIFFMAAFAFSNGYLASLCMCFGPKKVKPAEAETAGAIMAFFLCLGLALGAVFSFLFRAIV
The data set can be described thus: Inhibition of [^3H]uridine uptake in yeast cells producing recombinant hENT1. It counts as cell-based. The protocol: (§1) The interaction of 2-nitroimidazole sugars with nucleoside transporters was determined by ability of the 2-nitroimidazole sugars to inhibit [^3H]uridine uptake in yeast cells producing recombinant human nucleoside transporters and results expressed as IC50 values.
(§2) Saccharomyces cerevisiae yeast was separately transformed with plasmids (pYPhENT1, pYPhENT2, pYPhCNT1, pYPhCNT2, or pYPhCNT3) encoding hNTs (hENT1, hENT2, hCNT1, hCNT2, or hCNT3, respectively) as described elsewhere. Uptake of 1 µmol/L [^3H]uridine (Moravek Biochemicals) into yeast was measured as previously described using a semi-automated cell harvester (Micro96 HARVESTER; Skatron Instruments, Tranby, Norway). Yeast was incubated at room temperature with 1 µmol/L [^3H]uridine in yeast growth media (pH 7.4) in the presence or absence (uninhibited controls) of graded concentrations (0–3 mM) of test compounds. The following compounds were used for transporter experiments: FAZA, β-FAZA, α-FAZDR, β-FAZDR. Uridine self-inhibition was used to determine maximum inhibition of mediated transport. Concentration–effect curves were subjected to nonlinear regression analysis using Prism software (version 4.03; GraphPad Software Inc.) to obtain the concentration of test compound that inhibited uridine uptake by 50%, relative to that of untreated cells (IC50 values). Each IC50 value determination was conducted with nine concentrations and four replicates per concentration and experiments were repeated two to three times.

For the next data set, the target named is T2, hENT2 (SLC29A2) (Homo sapiens, UniProt Q14542).
T2 construct: expressed in transfected cells; host or cells: Saccharomyces cerevisiae
T2 sequence (Q14542 1-456): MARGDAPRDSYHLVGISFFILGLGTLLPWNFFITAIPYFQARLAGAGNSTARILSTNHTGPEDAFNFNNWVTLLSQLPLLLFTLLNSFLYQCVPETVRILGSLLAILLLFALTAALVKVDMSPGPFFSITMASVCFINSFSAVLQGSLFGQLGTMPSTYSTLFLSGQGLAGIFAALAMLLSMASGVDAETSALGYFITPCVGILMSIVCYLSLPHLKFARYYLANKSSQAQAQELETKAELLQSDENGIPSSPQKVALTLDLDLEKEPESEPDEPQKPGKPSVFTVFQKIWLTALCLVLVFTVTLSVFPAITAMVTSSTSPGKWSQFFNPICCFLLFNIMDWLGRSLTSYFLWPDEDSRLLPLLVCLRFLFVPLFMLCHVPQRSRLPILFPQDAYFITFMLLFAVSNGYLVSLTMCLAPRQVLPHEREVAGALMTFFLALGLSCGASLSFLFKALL
The data set can be described thus: Inhibition of [^3H]uridine uptake in yeast cells producing recombinant hENT2. It counts as cell-based. The protocol: as §1, §2

Another data set deals with T3, hCNT1 (SLC28A1) (Homo sapiens, UniProt O00337).
T3 construct: expressed in transfected cells; host or cells: Saccharomyces cerevisiae
T3 sequence (O00337 1-649): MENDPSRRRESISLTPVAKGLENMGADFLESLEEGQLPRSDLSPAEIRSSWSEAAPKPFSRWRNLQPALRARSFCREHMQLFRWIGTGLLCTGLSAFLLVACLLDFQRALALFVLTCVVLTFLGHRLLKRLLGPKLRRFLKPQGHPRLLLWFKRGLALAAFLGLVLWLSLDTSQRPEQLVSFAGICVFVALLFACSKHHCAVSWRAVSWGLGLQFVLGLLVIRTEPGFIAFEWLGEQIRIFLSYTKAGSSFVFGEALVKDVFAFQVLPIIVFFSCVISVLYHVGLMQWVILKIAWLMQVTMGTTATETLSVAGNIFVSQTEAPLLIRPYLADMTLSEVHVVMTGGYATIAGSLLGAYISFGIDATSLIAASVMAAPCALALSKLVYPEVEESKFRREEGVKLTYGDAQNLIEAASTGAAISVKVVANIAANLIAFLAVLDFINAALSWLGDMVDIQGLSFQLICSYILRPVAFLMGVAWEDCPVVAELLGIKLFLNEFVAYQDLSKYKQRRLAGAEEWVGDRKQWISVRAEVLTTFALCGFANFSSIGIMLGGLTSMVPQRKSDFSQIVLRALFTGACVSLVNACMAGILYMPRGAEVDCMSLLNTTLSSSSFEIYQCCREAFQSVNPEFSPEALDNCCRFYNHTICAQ
Kind of data set: Inhibition of [^3H]uridine uptake in yeast cells producing recombinant hCNT1. In kind it is cell-based. The protocol:
as §1, §2

Another data set addresses T4, hCNT2 (SLC28A2) (Homo sapiens, UniProt O43868).
T4 construct: expressed in transfected cells; host or cells: Saccharomyces cerevisiae
T4 sequence (O43868 1-658): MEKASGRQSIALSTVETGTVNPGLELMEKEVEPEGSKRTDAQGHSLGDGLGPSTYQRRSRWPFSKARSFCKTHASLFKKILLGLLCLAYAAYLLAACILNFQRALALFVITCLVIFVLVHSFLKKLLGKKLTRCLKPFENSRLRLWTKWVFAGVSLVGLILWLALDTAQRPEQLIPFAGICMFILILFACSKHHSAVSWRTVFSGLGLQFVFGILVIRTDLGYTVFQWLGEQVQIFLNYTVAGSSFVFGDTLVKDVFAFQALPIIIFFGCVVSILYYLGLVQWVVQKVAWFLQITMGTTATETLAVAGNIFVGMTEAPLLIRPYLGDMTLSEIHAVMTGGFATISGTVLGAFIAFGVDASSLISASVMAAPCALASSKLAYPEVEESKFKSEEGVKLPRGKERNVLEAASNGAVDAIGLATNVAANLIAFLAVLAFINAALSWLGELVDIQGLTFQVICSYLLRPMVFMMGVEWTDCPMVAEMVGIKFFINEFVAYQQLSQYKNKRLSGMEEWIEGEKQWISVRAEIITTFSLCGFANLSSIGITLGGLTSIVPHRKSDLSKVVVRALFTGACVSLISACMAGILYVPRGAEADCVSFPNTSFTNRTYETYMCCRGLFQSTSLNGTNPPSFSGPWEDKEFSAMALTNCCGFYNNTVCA
Kind of data set: Inhibition of [^3H]uridine uptake in yeast cells producing recombinant hCNT2. In kind it is cell-based. The protocol: as §1, §2

In another data set the target is T5, hCNT3 (SLC28A3) (Homo sapiens, UniProt Q9HAS3).
T5 construct: expressed in transfected cells; host or cells: Saccharomyces cerevisiae
T5 sequence (Q9HAS3 1-691): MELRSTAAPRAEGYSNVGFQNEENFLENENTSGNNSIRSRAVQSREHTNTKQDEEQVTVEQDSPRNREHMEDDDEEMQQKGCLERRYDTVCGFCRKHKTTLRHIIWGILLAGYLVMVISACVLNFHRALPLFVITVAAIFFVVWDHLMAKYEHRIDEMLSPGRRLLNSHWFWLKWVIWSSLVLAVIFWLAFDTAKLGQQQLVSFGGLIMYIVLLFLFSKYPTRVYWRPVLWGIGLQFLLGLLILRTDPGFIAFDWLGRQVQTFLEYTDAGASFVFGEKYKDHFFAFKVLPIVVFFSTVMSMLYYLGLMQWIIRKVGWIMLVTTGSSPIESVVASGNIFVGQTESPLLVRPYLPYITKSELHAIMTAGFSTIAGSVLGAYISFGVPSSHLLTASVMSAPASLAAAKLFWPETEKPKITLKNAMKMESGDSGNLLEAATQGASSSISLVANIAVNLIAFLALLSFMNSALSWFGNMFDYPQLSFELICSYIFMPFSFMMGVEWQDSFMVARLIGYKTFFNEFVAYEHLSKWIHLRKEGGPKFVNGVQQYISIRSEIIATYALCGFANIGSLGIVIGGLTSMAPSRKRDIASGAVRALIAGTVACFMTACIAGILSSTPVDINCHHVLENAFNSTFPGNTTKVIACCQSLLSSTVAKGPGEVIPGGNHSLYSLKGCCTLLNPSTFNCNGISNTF
Kind of data set: Inhibition of [^3H]uridine uptake in yeast cells producing recombinant hCNT3. In kind it is cell-based. On the procedure: as §1, §2

For the compound `O=[N+]([O-])c1nccn1[C@@H]1C[C@H](O)[C@@H](C[18F])O1` [α-[^18F]FAZDR, 1′-α-[2′,5′-dideoxy-5′-[^18F]fluoro-D-ribofuranosyl]-2-nitroimidazole], in the data set on CT26 colon carcinoma (1 h p.i.), the tumor uptake is listed as 1.90 ± 0.48 %ID/cc, the “tumor-to-muscle ratio (TMR)” value is 1.93 ± 0.39 and the muscle uptake turned out to be 1.01 ± 0.32 %ID/cc. In the data set on CT26 colon carcinoma (2 h p.i. relative to 1 h p.i.), the muscle clearance was 53.3 ± 8.3% and the tumor clearance stood at 34.2 ± 7.5%. In the data set with CT26 colon carcinoma (3 h p.i.), the “clearance ratio for tumor relative to muscle tissue” value was 0.79 ± 0.12, the tumor uptake is recorded as 0.88 ± 0.42 %ID/cc and the muscle uptake is 0.31 ± 0.15 %ID/cc. For the same compound, in the data set with CT26 colon carcinoma (3 h p.i. relative to 1 h p.i.), the muscle clearance stood at 70.3 ± 5.5% and the tumor clearance was determined as 55.3 ± 8.3%.
Regarding `O=[N+]([O-])c1nccn1[C@@H]1O[C@H](CF)[C@@H](O)[C@@H]1O` [β-FAZA, 1-(5′-Deoxy-5′-fluoro-β-D-arabinofuranosyl)-2-nitroimidazole], the IC50 – broadly, the midpoint of a concentration-inhibition curve – on hENT1 (SLC29A1) was 2070 ± 50 µM; on hENT2 (SLC29A2) it was more than 3000 µM; on hCNT1 (SLC28A1), more than 3000 µM; on hCNT2 (SLC28A2) it was more than 3000 µM; at hCNT3 (SLC28A3) it was 2310 ± 352 µM.
For the compound `O=[N+]([O-])c1nccn1C1CC(O)C(CF)O1` (stereo not drawn) [β-FAZDR], the IC50 is more than 3000 µM at hENT2 (SLC29A2), 269 ± 4 µM on hCNT1 (SLC28A1) and 124 ± 33 µM at hCNT3 (SLC28A3).
`O=[N+]([O-])c1nccn1CC(O)C[18F]` (stereo not shown) [[^18F]FMISO, reference compound]: in the data set on CT26 colon carcinoma (1 h p.i.), the tumor uptake is listed as 2.49 ± 0.88 %ID/cc, the “tumor-to-muscle ratio (TMR)” value was found to be 1.37 ± 0.11 and the muscle uptake came out at 1.81 ± 0.58 %ID/cc. For the same compound, in the data set with CT26 colon carcinoma (2 h p.i. relative to 1 h p.i.), the muscle clearance amounted to 37.2 ± 4.3% and the tumor clearance worked out at 11.8 ± 6.5%. Also, in the data set with CT26 colon carcinoma (3 h p.i.), the “clearance ratio for tumor relative to muscle tissue” value was 0.45 ± 0.17. In the data set on CT26 colon carcinoma (3 h p.i. relative to 1 h p.i.), this compound gave a muscle clearance of 58.6 ± 3.3% and a tumor clearance of 26.9 ± 10.1%.
`O=[N+]([O-])c1nccn1[C@H]1C[C@H](O)[C@@H](C[18F])O1` [β-[^18F]FAZDR, [^18F]fluoro-azomycin-β-deoxyriboside]: in the data set on CT26 colon carcinoma (1 h p.i.), the tumor uptake is reported as 0.40 ± 0.07 %ID/cc, the “tumor-to-muscle ratio (TMR)” value came out at 2.52 ± 0.94 and the muscle uptake is reported as 0.17 ± 0.03 %ID/cc. Besides, in the data set on CT26 colon carcinoma (2 h p.i. relative to 1 h p.i.), the muscle clearance was 58.4 ± 8.2% and the tumor clearance came to 56.6 ± 6.8%. Besides, in the data set with CT26 colon carcinoma (2 h p.i.), the tumor uptake is on record as 0.18 ± 0.06 %ID/cc, the “tumor-to-muscle ratio (TMR)” value was determined as 2.65 ± 0.87 and the muscle uptake was 0.07 ± 0.01 %ID/cc. In the data set with CT26 colon carcinoma (3 h p.i.), the “clearance ratio for tumor relative to muscle tissue” value turned out to be 0.95 ± 0.02, the tumor uptake turned out to be 0.12 ± 0.05 %ID/cc, the “tumor-to-muscle ratio (TMR)” value came to 2.91 ± 1.01 and the muscle uptake stood at 0.04 ± 0.01 %ID/cc. In the data set on CT26 colon carcinoma (3 h p.i. relative to 1 h p.i.), the muscle clearance turned out to be 75.3 ± 6.4% and the tumor clearance worked out at 71.5 ± 7.0%.
